The subject of series [1] is IL-6 production in PMA-differentiated THP1 macrophages. Nature of the series: IL-6 production in LPS treated PMA-differentiated THP1 macrophages (ELISA). It is filed as cell-based, human. The settings on record: 1.23, 3.7, 11.11, 33.33 and 100 μg/mL, then LPS 48 h. How it is done: (§1) Methods: […] THP1 monocytes were differentiated to macrophages using phorbol 12-myristate 13-acetate (PMA, Sigma, P1585). The […] The culture supernatant was collected from each well and replaced with 100 μl of fresh 1% FBS medium. […] 50 μl of cultured supernatant was used for measuring TNF-α and IL6 concentration. TNF-α was measured using human TNF-α DuoSet ELISA kit (R&D systems, DY210-05) and IL6 was determined using human IL6 DuoSet ELISA kit (R&D systems, DY206-05) according to the manufacturer's instructions. […] THP1 monocytes were differentiated to macrophages as previously described. […] Untreated cells were used as the control. After incubation, cell cultures were then stimulated with LPS for an additional 48 h (total volume of 200 μL per well). The culture supernatant was collected from each well and replaced with 100 μL of fresh 1% FBS medium. […] 50 μl of cultured supernatant was used for measuring TNF-α and IL6 concentration. TNF-α was measured using human TNF-α DuoSet ELISA kit and IL6 was determined using human IL6 DuoSet ELISA kit according to the manufacturer's instructions.
For orientation: ELISA stands for enzyme-linked immunosorbent assay.

Series [2] relates to nitric oxide (NO) production in PMA-differentiated THP1 macrophages. Nature of the series: Nitric oxide (NO) production in LPS treated PMA-differentiated THP1 macrophages. The series is classed as cell-based, human. The settings on record: pre-treatment 2 h, then LPS 48 h. The procedure:
Methods: […] Total nitrite was measured using nitric oxide colorimetric assay kit (BioVision, […]-200) according to the manufacturer's instructions. […] Untreated cells were used as the control. After incubation, cell cultures were then stimulated with LPS for an additional 48 h (total volume of 200 μl per well). The culture supernatant was collected from each well and replaced with 100 μl of fresh 1% FBS medium. […] 42.5 μL of cultured supernatant was used for measuring nitrite concentration. Total nitrite was measured using nitric oxide colorimetric assay kit according to the manufacturer's instructions.

Series [3] has as its system TNF-α production in PMA-differentiated THP1 macrophages. As to the kind of experiment: TNF-α production in LPS treated PMA-differentiated THP1 macrophages (ELISA). The settings on record: 1.23, 3.7, 11.11, 33.33 and 100 μg/mL, then LPS 48 h. The series is classed as cell-based, human. How it is done:
as §1

Another series deals with Jurkat cells. The series is classed as cell-based.
The next series deals with MCF7 cells. It is filed as cell-based.
The test system of the next series is THP1 cells. The series is classed as cell-based.

Each structure is given as a SMILES string.

Consider 4 compounds from patent US20240147927A1, “METHODS OF HIGH PRODUCTION OF POLYPHENOLS FROM RED LETTUCES AND USES THEREOF” (SignalChem Plantech Corporation, priority 2021, published 2024).

For the compound `O=C(C=Cc1ccc(O)c(O)c1)O[C@@H](C(=O)O)[C@@H](OC(=O)C=Cc1ccc(O)c(O)c1)C(=O)O` [Chicoric acid, (2R,3R)-O-dicaffeoyltartaric acid], the “effect on secretion of IL-6” value in series [1] is reported as “minimal effects”. For the same compound, the “NO, EC50” value in series [2] stood at 25.3 µg/mL. For the same compound, the “effect on secretion of TNF-α” value in series [3] is given as “minimal effects”.
Regarding `OC[C@H]1O[C@@H](Oc2cc3c(O)cc(O)cc3[o+]c2-c2ccc(O)c(O)c2)[C@H](O)[C@@H](O)[C@H]1O` [Cyanidin 3-galactoside, cyanidin 3-galactoside], the “Jurkat, TC50” value in the series on Jurkat cells came out at 53.5 µg/mL. Further, the “effect on secretion of IL-6” value in series [1] is reported as “minimal effects”. The “NO, EC50” value in series [2] worked out at 98.4 µg/mL. For the same compound, the “effect on secretion of TNF-α” value in series [3] is reported as “minimal effects”. Besides, the “cytotoxicity towards MCF7 cell-line” value in the series with MCF7 cells is given as “did not appear to be individually cytotoxic”. Also, in the series with THP1 cells, the “cytotoxicity towards THP1 cell-line” value is given as “did not appear to be individually cytotoxic”.
For the compound `O=C(/C=C/c1ccc(O)c(O)c1)O[C@H]1[C@H](O)C[C@](O)(C(=O)O)C[C@H]1O` [4-CQA, 4-O-caffeoylquinic acid], the “Jurkat, TC50” value in the series with Jurkat cells amounted to 49.9 µg/mL. The “effect on secretion of IL-6” value in series [1] is “minimal effects”. Further, in series [2], the “NO, EC50” value is 71.9 µg/mL. For the same compound, in series [3], the “effect on secretion of TNF-α” value was “minimal effects”. Further, the “cytotoxicity towards MCF7 cell-line” value with MCF7 cells is reported as “did not appear to be individually cytotoxic”. Besides, the “cytotoxicity towards THP1 cell-line” value with THP1 cells is reported as “did not appear to be individually cytotoxic”.
Take `O=C(/C=C/c1ccc(O)c(O)c1)O[C@@H]1C[C@](O)(C(=O)O)C[C@@H](O)[C@H]1O` [Neochlorogenic acid, 3-O-caffeoylquinic acid]: the “effect on secretion of IL-6” value in series [1] is listed as “minimal effects”. Moreover, the “NO, EC50” value in series [2] was 80.5 µg/mL. In addition, the “effect on secretion of TNF-α” value in series [3] is reported as “minimal effects”.
